Source: patent US20240116946A1 (Gilead Sciences, Inc., priority 2022, published 2024)
Like-named read-outs stand apart in the source and are kept apart here.

Legend:
[1] = biological target: recombinant SARS-CoV-2 Main protease (Mpro) (Severe acute respiratory syndrome coronavirus 2 (2019-nCoV) (SARS-CoV-2), UniProt P0DTD1); assay: Cov Mpro Biochemical IC50 Assay
SARS-CoV-2-NLuc = assay: microbe, parasite or virus in culture; type: cell-based, SARS Coronavirus 2
[2] = recombinant SARS-CoV-2 Mpro 7.5 nM, fluorogenic peptide substrate 40 μM, read-out: MPro IC50
[3] = recombinant SARS-CoV-2 Mpro, fluorogenic peptide substrate, read-out: MPro IC50
[4] = Severe acute respiratory syndrome coronavirus, 48 h, read-out: MPro EC50
[5] = Severe acute respiratory syndrome coronavirus, 48 h; read-out: MPro EC50
[6] = MPro IC50, recombinant SARS-CoV-2 Mpro, fluorogenic peptide substrate

SMILES	IC50 [1, 2]	IC50 [1, 3]	EC50 (SARS-CoV-2-NLuc; [4])	further results
Cn1ncc2cncc(-n3c(=O)c4sc(-c5ccccc5C#N)cc4n(CCC#N)c3=O)c21 (single isomer, unassigned) [Example 962, 2-(1-(2-cyanoethyl)-3-(1-methyl-1H-pyrazolo[4,3-c]pyridin-7-yl)-2,4-dioxo-1,2,3,4-tetrahydrothieno[3,2-d]pyrimidin-6-yl)benzonitrile]	> 1000 nM			EC50 (SARS-CoV-2-NLuc; read-out: MPro EC50): > 1000 nM
NC(=O)c1ccccc1-c1cc2[nH]c(=O)n(-c3cncc4ccccc34)c(=O)c2cc1F [Example 68]		1010 nM	43800 nM	
Cc1c(C#N)cncc1-c1cccc(Cl)c1-c1ccc2c(=O)n(-c3cncc4ccccc34)c(=O)[nH]c2c1 [Example 205]		44 nM	41.2 nM	
O=c1[nH]c2cc(-c3ccccc3Cl)sc2c(=O)n1-c1cncc2cnn(CC(F)(F)F)c12 [Example 496]	31.6 nM		138 nM	
COc1cc(-c2cc3c(s2)c(=O)n(-c2cncc4ccccc24)c(=O)n3CC(C)C#N)c(Cl)cc1F (stereo not drawn) [Example 1096, 3-(6-(2-chloro-4-fluoro-5-methoxyphenyl)-3-(isoquinolin-4-yl)-2,4-dioxo-3,4-dihydrothieno[3,2-d]pyrimidin-1(2H)-yl)-2-methylpropanenitrile]	10.4 nM			EC50 (SARS-CoV-2-NLuc; [5]): 15.9 nM
COc1cc(-c2cc3[nH]c(=O)n(-c4cncc5ccccc45)c(=O)c3s2)c(Cl)cc1C [Example 341]		5.44 nM	4.62 nM	
N#CCCn1c(=O)n(-c2cccnc2)c(=O)c2sc(-c3ccc(F)cc3Cl)cc21 [Example 800]	32.6 nM			EC50 (SARS-CoV-2-NLuc; [5]): 114 nM
Cc1noc(C)c1-c1cccc(Cl)c1-c1cc2[nH]c(=O)n(-c3cncc4ccccc34)c(=O)c2s1 [Example 355]		9.64 nM	22.9 nM	
Cc1ccccc1-c1cc2[nH]c(=O)n(-c3cncc4ccccc34)c(=O)c2cn1 [Example 165]		1470 nM	2470 nM	
CC(=O)NCCn1c(=O)n(-c2cncc(C3CC3)c2)c(=O)c2sc(-c3ccccc3Cl)cc21 [Example 620]	281 nM		759 nM	
COc1cc(-c2cc3[nH]c(=O)n(-c4cncc5cc(C(C)(C)O)sc45)c(=O)c3s2)c(Cl)cc1F [Example 513]	7.18 nM		45.9 nM	
COc1ccc(Cl)c(-c2cc(F)c3c(=O)n(-c4cncc5ccccc45)c(=O)[nH]c3c2)c1 [Example 221]		65.8 nM		EC50 (SARS-CoV-2-NLuc; [5]): 50.6 nM
COc1cc(-c2cc3c(s2)c(=O)n(-c2cncc(Cl)c2C)c(=O)n3CCC#N)c(Cl)cc1F [Example 927, 3-[6-(2-chloro-4-fluoro-5-methoxy-phenyl)-3-(5-chloro-4-methyl-3-pyridyl)-2,4-dioxo-thieno[3,2-d]pyrimidin-1-yl]propanenitrile]	7.02 nM		6.88 nM	
Cc1cc(C#N)c(-c2cc3c(s2)c(=O)n(-c2cncc4cnn(C)c24)c(=O)n3CCC#N)cc1F [Example 786]	27.9 nM		165 nM	
Cc1nc(Cl)ccc1-c1cc2[nH]c(=O)n(-c3cncc4ccccc34)c(=O)c2s1 [Example 288]		227 nM	1050 nM	
Cc1ccc(C#N)cc1-c1cc2c(s1)c(=O)n(-c1cncc3cnn(C)c13)c(=O)n2CCC#N [Example 809]	54.2 nM		200 nM	
O=c1[nH]c2cc(-c3ccccc3Cl)ccc2c(=O)n1-c1cncc(C2CC2)c1 [Example 127]				IC50 [1, 6]: 776 nM; EC50 (SARS-CoV-2-NLuc; [5]): 652 nM
COc1cc(-c2cc3c(s2)c(=O)n(-c2cncc4nc(-c5ccccc5F)n(C)c24)c(=O)n3CCC#N)c(Cl)cc1F [Example 756]	19.6 nM		90.7 nM	
O=c1[nH]c2cc(-c3ccccc3Cl)sc2c(=O)n1-c1cncc2ccc(F)cc12 [Example 622, 6-(2-chlorophenyl)-3-(6-fluoroisoquinolin-4-yl)thieno[3,2-d]pyrimidine-2,4(1H,3H)-dione]	15.4 nM			EC50 (SARS-CoV-2-NLuc; [5]): 39.3 nM
CN1C(=O)COc2cc(-c3cccc(Cl)c3-c3ccc4c(=O)n(-c5cncc6ccccc56)c(=O)[nH]c4c3)ccc21 [Example 197]		13.9 nM	8.58 nM	
CN(CCO)c1ccc2cncc(-n3c(=O)[nH]c4cc(-c5ccccc5Cl)sc4c3=O)c2c1 [Example 404]	6.49 nM		37.4 nM	
Cn1ncc2cncc(-n3c(=O)c4sc(-c5ccccc5C#N)cc4n(CCC#N)c3=O)c21 [Example 782, 2-(1-(2-cyanoethyl)-3-(1-methyl-1H-pyrazolo[4,3-c]pyridin-7-yl)-2,4-dioxo-1,2,3,4-tetrahydrothieno[3,2-d]pyrimidin-6-yl)benzonitrile]	15.5 nM		39.8 nM	
Cc1c(-c2cccc(Cl)c2-c2ccc3c(=O)n(-c4cncc5ccccc45)c(=O)[nH]c3c2)cnn1C1CCN(C(=O)OC(C)(C)C)CC1 [Example 268]		131 nM	43.1 nM	

SMILES	IC50 [1, 2]	IC50 [1, 3]	EC50 (SARS-CoV-2-NLuc; [4])	further results
COc1cc(-c2cc3[nH]c(=O)n(-c4cnnc5ccccc45)c(=O)c3s2)c(Cl)cc1F [Example 745]	92 nM			EC50 (SARS-CoV-2-NLuc; [5]): 257 nM
Cc1cncc(-n2c(=O)c3sc(-c4ccccc4Cl)cc3n(CCC#N)c2=O)n1 [Example 833]	16 nM		49.7 nM	
N#Cc1cccc(Cl)c1-c1ccc2c(=O)n(-c3cncc4ccccc34)c(=O)[nH]c2c1 [Example 98]		213 nM	198 nM	
COc1cc(-c2cc3c(s2)c(=O)n(-c2cncc4c2CCCC4)c(=O)n3CCC#N)c(Cl)cc1F [Example 908]	7.52 nM		6.84 nM	
O=c1[nH]c2cc(-c3ccccc3Cl)ccc2c(=O)n1-c1cncnc1 [Example 123]		> 100000 nM	47000 nM	
COc1cc(-c2cc3[nH]c(=O)n(-c4cncc5ccc(F)cc45)c(=O)c3s2)c(Cl)cc1F [Example 763]	10.2 nM		13.4 nM	
COc1cc(-c2cc3[nH]c(=O)n(-c4cncc5ccccc45)c(=O)c3s2)ccc1F [Example 469, 6-(4-fluoro-3-methoxy-phenyl)-3-(4-isoquinolyl)-1H-thieno[3,2-d]pyrimidine-2,4-dione]	276 nM		334 nM	
COc1cnc(Cl)c(-c2cc3c(s2)c(=O)n(-c2cncc4cccc(F)c24)c(=O)n3CCC#N)c1 (single isomer, unassigned) [Example 1094, 3-(6-(2-chloro-5-methoxypyridin-3-yl)-3-(5-fluoroisoquinolin-4-yl)-2,4-dioxo-3,4-dihydrothieno[3,2-d]pyrimidin-1(2H)-yl)propanenitrile]	3.27 nM			EC50 (SARS-CoV-2-NLuc; read-out: MPro EC50): 9.71 nM
Cc1nnc(-c2cccc(-c3ccc4c(=O)n(-c5cncc6ccccc56)c(=O)[nH]c4c3)c2)o1 [Example 39]		7750 nM		EC50 (SARS-CoV-2-NLuc; [5]): 23400 nM
COc1cc(-c2cc3c(s2)c(=O)n(-c2cncc4ccccc24)c(=O)n3CC2(C#N)CC2)c(Cl)cc1F (single isomer, unassigned) [Example 636, 1-[[6-(2-chloro-4-fluoro-5-methoxy-phenyl)-3-(4-isoquinolyl)-2,4-dioxo-thieno[3,2-d]pyrimidin-1-yl]methyl]cyclopropanecarbonitrile]	11.6 nM			EC50 (SARS-CoV-2-NLuc; read-out: MPro EC50): 5.54 nM
O=c1[nH]c2cc(-c3ccccc3Cl)sc2c(=O)n1-c1cncc2ccc(N3CC4(CCCO4)C3)cc12 [Example 402]	6.05 nM		12.1 nM	
COc1cc(-c2cc3[nH]c(=O)n(-c4cncc5nn(C)cc45)c(=O)c3s2)c(Cl)cc1F [Example 731]	5.04 nM		65.6 nM	
COc1cc(-c2cc3[nH]c(=O)n(-c4cncc5ncccc45)c(=O)c3s2)c(Cl)cc1F [Example 737]	17.9 nM		74.1 nM	
COc1cc(-c2cc3c(s2)c(=O)n(-c2cncc4c2c(C(F)(F)F)nn4COCC[Si](C)(C)C)c(=O)n3CCC#N)c(Cl)cc1F [Example 1046, 3-(6-(2-chloro-4-fluoro-5-methoxyphenyl)-2,4-dioxo-3-(3-(trifluoromethyl)-1-((2-(trimethylsilyl)ethoxy)methyl)-1H-pyrazolo[3,4-c]pyridin-4-yl)-3,4-dihydrothieno[3,2-d]pyrimidin-1(2H)-yl)propanenitrile]				IC50 ([1]; MPro IC50, recombinant SARS-CoV-2 Mpro 7.5 nM, fluorogenic peptide substrate 40 μM): 35.8 nM; EC50 (SARS-CoV-2-NLuc; [5]): 129 nM
Cc1cn(C)nc1-c1cccc(Cl)c1-c1cc2[nH]c(=O)n(-c3cncc4ccccc34)c(=O)c2s1 [Example 519]	10.9 nM		31.6 nM	
O=c1[nH]c2cc(-c3ccccc3Cl)ccc2c(=O)n1-c1cnccc1N1CCOCC1 [Example 128]		510 nM		EC50 (SARS-CoV-2-NLuc; [5]): 1320 nM
COc1cc(-c2cc3c(s2)c(=O)n(-c2cncc4cnn(C)c24)c(=O)n3CC(C)(C)C#N)c(Cl)cc1F [Example 697]	9.01 nM		9.62 nM	
COc1cc(-c2cc3c(s2)c(=O)n(-c2cncc4cccnc24)c(=O)n3CCC#N)c(Cl)cc1F (single isomer, unassigned) [Example 1037, 3-(6-(2-chloro-4-fluoro-5-methoxyphenyl)-3-(1,6-naphthyridin-8-yl)-2,4-dioxo-3,4-dihydrothieno[3,2-d]pyrimidin-1(2H)-yl)propanenitrile]	544 nM			EC50 (SARS-CoV-2-NLuc; read-out: MPro EC50): 362 nM
COc1ccc(Cl)c(-c2cc3[nH]c(=O)n(-c4cncc5ccc(N6C(=O)COC[C@@H]6C)cc45)c(=O)c3s2)c1 [Example 574]	6.37 nM			EC50 (SARS-CoV-2-NLuc; read-out: MPro EC50): 18.5 nM
Cc1noc(C)c1-c1ccc2c(=O)n(-c3cncc4ccccc34)c(=O)[nH]c2c1 [Example 44]				IC50 [1, 6]: 1370 nM; EC50 (SARS-CoV-2-NLuc; [5]): 3000 nM
COc1cc(-c2cc3c(s2)c(=O)n(-c2cncc(CO)c2)c(=O)n3CCC#N)c(C#N)cc1F [Example 1102]	4.12 nM		568 nM	
O=c1[nH]c2sc(-c3ccccc3)nc2c(=O)n1-c1cncc2ccccc12 [Example 158, 6-(isoquinolin-4-yl)-2-phenylthiazolo[5,4-d]pyrimidine-5,7(4H,6H)-dione]		133 nM	19100 nM	
